Data on 6 compounds can be found in patent US20090042240A1, “RAPID DETECTION OF ANTIMICROBIAL DRUG RESIDUES” (priority 2006, published 2009).

Structures are written as SMILES.

One series relates to Escherichia coli. The settings on record: additional study 1997; microorganism frozen in skimmed milk, cells washed with saline; cited from earlier work.
For series [1] the following is noted: cited from earlier work; for Lowest official MRL: official Maximum Residue Limit, unit assumed; for MRL: MRL stated by the European Community.
Series [2] concerns Escherichia coli ATCC 11303. As to conditions: milk; Escherichia coli ATCC 11303 frozen in 10% glycerol; cited from earlier work.
The test system of a further series is Escherichia coli strains. As to conditions: Choi et al. 1999, animal tissues; cited from earlier work.
The subject of series [3] is Escherichia coli strain ATCC 11303. Kind of series: Detection of quinolones in chicken muscle by solvent extraction, then liquid test (Example 7). The class given is cell-based. As to conditions: acetonitrile/acetone extraction. The procedure: Escherichia coli strain ATCC 11303 was grown using well-known methods. The test medium was prepared by adding Escherichia coli cells to the quinolone medium to a final concentration of approximately 10^5 cells/ml. The test was prepared by addition of 250 μl of medium containing the test organism in each test ampoule. Spiked samples were prepared by adding different concentrations of the quinolones described in Table 1 to demineralized water. 100 μl of the spiked sample was added to the test ampoule, a negative control (water without quinolones) was included. The tests were incubated at 37° C. for 4 hours and 45 minutes. The tests were read at the time the test incubated with the negative control sample (water without quinolones) changed color from purple to yellow. In this experiment a mixture of acetonitrile/acetone is used to extract antimicrobial compounds out of the sample, further the experiment is executed as described in Example 2. The sample is obtained as follows: • 1. Weigh out 4 g (±0.03) of sample into a 50 ml plastic disposable centrifuge tube; • 2. Add 10 ml acetonitrile/acetone 70:30 (v/v); • 3. […] Homogenize for 30-40 seconds using an Ultra Turrax; • 5. Place in an ultrasonic bath for 5-10 minutes, then vortex mix for 30-40 seconds; • 6. Centrifuge for 10-12 minutes at 4200 G at 4° C.; • 7. […]

Series [4] shares this test system. Kind of series: Liquid based microbial screening test for quinolones (Example 2). Format: cell-based. The settings on record: spiked demineralized water, 100 μl sample, 37° C., 4 hours and 45 minutes, colour change purple to yellow. The procedure: In this experiment a liquid based microbial screenings test for the detection of quinolones is described. The quinolone medium used in this experiment is prepared by dissolving the following compounds in 1 liter of demineralized water: • 8.5 gram of Plate Count Broth (PCB) (Difco, cat. no: 275120); • 20 gram of NaCl (Merck, cat. no: 106404); • 0.042 gram of Bromocresol purple (Merck, cat. no: 103025). Escherichia coli strain ATCC 11303 was grown using well-known methods. The test medium was prepared by adding Escherichia coli cells to the quinolone medium to a final concentration of approximately 10^5 cells/ml. The test was prepared by addition of 250 μl of medium containing the test organism in each test ampoule. Spiked samples were prepared by adding different concentrations of the quinolones described in Table 1 to demineralized water. 100 μl of the spiked sample was added to the test ampoule, a negative control (water without quinolones) was included. The tests were incubated at 37° C. for 4 hours and 45 minutes. The tests were read at the time the test incubated with the negative control sample (water without quinolones) changed color from purple to yellow.

For series [5] the following is noted: agar diffusion, Tsai and Kondo 2001; cited from earlier work. (In general: In agar diffusion tests the substance spreads into inoculated agar from a disc or well.)

For the compound `CN1C[C@@H]2C[C@H]1CN2c1cc2c(cc1F)c(=O)c(C(=O)O)cn2C1CC1` [Danofloxacin], the sensitivity in the series with Escherichia coli is listed as 8 ppb. The Lowest official MRL in series [1] was 30 µg/kg.
With `CCN1CCN(c2cc3c(cc2F)c(=O)c(C(=O)O)cn3C2CC2)CC1` [Enrofloxacin], the figures for the sensitivity (in series [2]; with Escherichia coli) were 2 ppb and 6 ppb, respectively. In addition, the detection limit with Escherichia coli strains is on record as 50 ppb.
`CC1CCc2cc(F)cc3c(=O)c(C(=O)O)cn1c23` (centres unmarked) [Flumequin] registered a concentration detected in series [3] of 10 µg/kg. Further, in series [1], the Lowest official MRL is 400 µg/kg. In series [4], this compound registered a Detection level of 100.
The compound `CCn1cc(C(=O)O)c(=O)c2cc3c(cc21)OCO3` [Oxolinic acid] displayed a concentration detected in series [3] of 10 µg/kg. For the same compound, in series [1], the Lowest official MRL is 100 µg/kg. Also, the sensitivity in series [5] is 200 ppb.
For the compound `O=C(O)c1cn(-c2ccc(F)cc2)c2cc(N3CCNCC3)c(F)cc2c1=O` [Sarafloxacin], the sensitivity with Escherichia coli is reported as 15 ppb. Moreover, in series [1], the MRL is 100 ppb and the Lowest official MRL was 10 µg/kg. For the same compound, in the series on Escherichia coli strains, the detection limit is recorded as 250 ppb.
Regarding `CN1CCN(c2cc3c(cc2F)c(=O)c(C(=O)O)cn3-c2ccc(F)cc2)CC1` [difloxacin], the MRL in series [1] is given as 10 ppb. In addition, the detection limit in the series with Escherichia coli strains is given as 250 ppb.
